In patent US9650339B2, “Inhibitors of histone demethylases” (Gilead Sciences, Inc., priority 2013, dated 2017):
pIC50: −log10 of the molar value.

Experiments:
Type in all cases: biochemical
KDM5C (JARID1C) = target: T1, KDM5C (JARID1C) (Homo sapiens, UniProt P41229); assay: Histone lysine demethylase AlphaLISA assay, KDM5C; details: read-out: KDM5C HDME Inhibition IC50
T1 construct: 2-1560; purchased BPS; host or cells: Bac (baculovirus system)
Protocol: (§1) Assays are performed analogously to the protocol described by PerkinElmer (Roy et al. PerkinElmer Technical Note: AlphaLISA #12, April 2011)
(§2) Enzymes are dissolved in enzyme buffer and incubated for 10 min before being added to 3% DMSO solutions of compounds in enzyme buffer. Incubated for another 10 minutes, before substrate solution is added and the reaction mixture is incubated at room temperature. 10 μL acceptor beads, suspended in Epigenetic Buffer (Perkin Elmer AL008) from stock, are added and the suspension is incubated in the dark at room temperature, before a suspension of streptavidin donor beads (Perkin Elmer 6760002) in Epigenetic Buffer is added. After incubation at room temperature in the dark the plates are read. […]
H3K4M3B: H-ART(Kme3)QTARKSTGGKAPRKQLA-NH-Biotin (Caslo, Denmark) […]
(§3) Substrate Solution: Substrate, 25 μM L-Asc, and 10 μM α-KG in Buffer A.

KDM5B (PLU-1) = target: T2, KDM5B (PLU-1) (Homo sapiens, UniProt Q9UGL1); assay: Histone lysine demethylase AlphaLISA assay, KDM5B; details: read-out: KDM5B HDME Inhibition IC50
T2 sequence (Q9UGL1 1-809): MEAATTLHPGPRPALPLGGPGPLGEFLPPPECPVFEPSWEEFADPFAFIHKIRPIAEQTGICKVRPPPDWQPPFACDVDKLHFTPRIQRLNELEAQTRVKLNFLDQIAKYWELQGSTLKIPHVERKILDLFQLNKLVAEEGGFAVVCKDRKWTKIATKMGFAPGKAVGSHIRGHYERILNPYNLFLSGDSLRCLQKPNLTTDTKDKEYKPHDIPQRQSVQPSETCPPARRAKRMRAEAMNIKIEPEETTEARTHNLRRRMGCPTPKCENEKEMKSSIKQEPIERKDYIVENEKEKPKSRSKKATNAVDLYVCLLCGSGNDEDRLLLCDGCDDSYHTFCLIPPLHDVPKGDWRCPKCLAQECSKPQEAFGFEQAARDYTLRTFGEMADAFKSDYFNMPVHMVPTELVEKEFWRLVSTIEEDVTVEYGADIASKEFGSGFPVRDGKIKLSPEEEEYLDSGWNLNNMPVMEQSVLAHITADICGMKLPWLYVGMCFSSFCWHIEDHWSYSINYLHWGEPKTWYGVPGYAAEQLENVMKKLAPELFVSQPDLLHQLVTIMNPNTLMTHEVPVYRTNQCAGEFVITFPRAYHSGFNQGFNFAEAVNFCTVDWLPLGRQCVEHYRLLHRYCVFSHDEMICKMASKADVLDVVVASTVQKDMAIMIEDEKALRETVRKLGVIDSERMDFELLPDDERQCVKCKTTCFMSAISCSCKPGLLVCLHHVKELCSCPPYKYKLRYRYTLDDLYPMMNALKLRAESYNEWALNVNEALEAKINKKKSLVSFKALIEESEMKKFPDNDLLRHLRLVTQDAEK
Outline: (§4)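 Biotinylated methylated H3 peptides (K9, K4, K27 or K36 marks) served as substrate, with 25 μM L-Asc and 10 μM α-KG. Enzymes were preincubated 10 min, then exposed to compounds (3% DMSO solutions) 10 min; product detected by AlphaLISA acceptor and streptavidin donor beads at room temperature in dark.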

KDM7 (PHF8) = target: T3, KDM7 (PHF8) (Homo sapiens, UniProt Q9UPP1); assay: Histone lysine demethylase AlphaLISA assay, KDM7; details: read-out: PHF8 HDME Inhibition IC50
T3 construct: KDM7 (PHF8); BRIC; 1-1322; Bac
T3 sequence (Q9UPP1 37-440 limits assumed): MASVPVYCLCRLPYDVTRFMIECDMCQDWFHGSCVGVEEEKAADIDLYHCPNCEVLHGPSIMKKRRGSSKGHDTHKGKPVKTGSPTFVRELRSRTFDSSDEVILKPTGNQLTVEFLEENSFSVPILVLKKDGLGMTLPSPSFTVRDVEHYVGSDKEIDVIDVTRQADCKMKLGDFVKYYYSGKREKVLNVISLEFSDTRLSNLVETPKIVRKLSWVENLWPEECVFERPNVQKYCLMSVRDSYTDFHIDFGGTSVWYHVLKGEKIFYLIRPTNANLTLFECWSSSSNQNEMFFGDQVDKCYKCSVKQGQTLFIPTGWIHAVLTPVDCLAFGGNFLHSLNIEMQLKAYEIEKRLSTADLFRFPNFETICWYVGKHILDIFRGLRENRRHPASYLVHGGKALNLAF
Outline: as §4

KDM3A (JMJD1A) = target: T4, KDM3A (JMJD1A) (Homo sapiens, UniProt Q9Y4C1); assay: Histone lysine demethylase AlphaLISA assay, KDM3A; details: read-out: KDM3 A HDME Inhibition IC50
T4 construct: 2-end; purchased BPS Bioscience, US; host or cells: Bac (baculovirus system)
T4 sequence (Q9Y4C1 2-1321 limits assumed): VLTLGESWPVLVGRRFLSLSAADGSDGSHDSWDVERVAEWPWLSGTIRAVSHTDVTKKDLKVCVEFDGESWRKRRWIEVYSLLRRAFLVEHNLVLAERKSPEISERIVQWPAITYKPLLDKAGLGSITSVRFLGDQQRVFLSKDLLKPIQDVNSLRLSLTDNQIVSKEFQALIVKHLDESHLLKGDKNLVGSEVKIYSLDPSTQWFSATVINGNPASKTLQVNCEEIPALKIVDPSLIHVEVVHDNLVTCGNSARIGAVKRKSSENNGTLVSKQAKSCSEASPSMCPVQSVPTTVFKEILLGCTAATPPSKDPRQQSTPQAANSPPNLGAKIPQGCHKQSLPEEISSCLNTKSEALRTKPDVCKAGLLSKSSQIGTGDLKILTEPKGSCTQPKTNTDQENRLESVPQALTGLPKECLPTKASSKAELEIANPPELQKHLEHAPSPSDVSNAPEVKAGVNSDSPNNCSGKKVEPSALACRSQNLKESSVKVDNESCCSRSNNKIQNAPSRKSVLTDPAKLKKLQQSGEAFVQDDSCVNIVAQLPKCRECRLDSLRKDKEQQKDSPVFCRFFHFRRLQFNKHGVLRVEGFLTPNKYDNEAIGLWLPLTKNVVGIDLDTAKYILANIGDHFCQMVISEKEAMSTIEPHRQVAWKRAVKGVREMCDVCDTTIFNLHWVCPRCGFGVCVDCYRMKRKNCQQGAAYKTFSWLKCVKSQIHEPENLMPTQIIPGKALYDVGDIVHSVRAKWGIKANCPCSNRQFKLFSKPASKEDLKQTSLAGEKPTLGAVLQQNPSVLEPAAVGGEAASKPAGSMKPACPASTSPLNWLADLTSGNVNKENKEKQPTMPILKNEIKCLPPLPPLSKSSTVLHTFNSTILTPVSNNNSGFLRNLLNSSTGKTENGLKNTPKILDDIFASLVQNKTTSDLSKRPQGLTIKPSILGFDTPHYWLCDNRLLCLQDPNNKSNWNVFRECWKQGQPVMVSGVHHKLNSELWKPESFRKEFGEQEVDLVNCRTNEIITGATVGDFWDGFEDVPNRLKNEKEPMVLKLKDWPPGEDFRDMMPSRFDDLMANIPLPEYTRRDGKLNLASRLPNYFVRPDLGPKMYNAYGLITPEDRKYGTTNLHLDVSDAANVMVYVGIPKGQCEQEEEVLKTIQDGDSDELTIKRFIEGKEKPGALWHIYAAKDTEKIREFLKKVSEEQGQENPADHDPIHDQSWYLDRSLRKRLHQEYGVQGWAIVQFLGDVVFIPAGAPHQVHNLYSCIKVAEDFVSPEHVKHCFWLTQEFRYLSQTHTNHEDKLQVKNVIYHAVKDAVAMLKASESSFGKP
Protocol: as §1, §2
BK9M2: Biotin-ARTKQTAR(KMe2)STGGKAPRKQ-NH2 (AnaSpec 64359) […]
as §3

T1 sequence (P41229 2-1560): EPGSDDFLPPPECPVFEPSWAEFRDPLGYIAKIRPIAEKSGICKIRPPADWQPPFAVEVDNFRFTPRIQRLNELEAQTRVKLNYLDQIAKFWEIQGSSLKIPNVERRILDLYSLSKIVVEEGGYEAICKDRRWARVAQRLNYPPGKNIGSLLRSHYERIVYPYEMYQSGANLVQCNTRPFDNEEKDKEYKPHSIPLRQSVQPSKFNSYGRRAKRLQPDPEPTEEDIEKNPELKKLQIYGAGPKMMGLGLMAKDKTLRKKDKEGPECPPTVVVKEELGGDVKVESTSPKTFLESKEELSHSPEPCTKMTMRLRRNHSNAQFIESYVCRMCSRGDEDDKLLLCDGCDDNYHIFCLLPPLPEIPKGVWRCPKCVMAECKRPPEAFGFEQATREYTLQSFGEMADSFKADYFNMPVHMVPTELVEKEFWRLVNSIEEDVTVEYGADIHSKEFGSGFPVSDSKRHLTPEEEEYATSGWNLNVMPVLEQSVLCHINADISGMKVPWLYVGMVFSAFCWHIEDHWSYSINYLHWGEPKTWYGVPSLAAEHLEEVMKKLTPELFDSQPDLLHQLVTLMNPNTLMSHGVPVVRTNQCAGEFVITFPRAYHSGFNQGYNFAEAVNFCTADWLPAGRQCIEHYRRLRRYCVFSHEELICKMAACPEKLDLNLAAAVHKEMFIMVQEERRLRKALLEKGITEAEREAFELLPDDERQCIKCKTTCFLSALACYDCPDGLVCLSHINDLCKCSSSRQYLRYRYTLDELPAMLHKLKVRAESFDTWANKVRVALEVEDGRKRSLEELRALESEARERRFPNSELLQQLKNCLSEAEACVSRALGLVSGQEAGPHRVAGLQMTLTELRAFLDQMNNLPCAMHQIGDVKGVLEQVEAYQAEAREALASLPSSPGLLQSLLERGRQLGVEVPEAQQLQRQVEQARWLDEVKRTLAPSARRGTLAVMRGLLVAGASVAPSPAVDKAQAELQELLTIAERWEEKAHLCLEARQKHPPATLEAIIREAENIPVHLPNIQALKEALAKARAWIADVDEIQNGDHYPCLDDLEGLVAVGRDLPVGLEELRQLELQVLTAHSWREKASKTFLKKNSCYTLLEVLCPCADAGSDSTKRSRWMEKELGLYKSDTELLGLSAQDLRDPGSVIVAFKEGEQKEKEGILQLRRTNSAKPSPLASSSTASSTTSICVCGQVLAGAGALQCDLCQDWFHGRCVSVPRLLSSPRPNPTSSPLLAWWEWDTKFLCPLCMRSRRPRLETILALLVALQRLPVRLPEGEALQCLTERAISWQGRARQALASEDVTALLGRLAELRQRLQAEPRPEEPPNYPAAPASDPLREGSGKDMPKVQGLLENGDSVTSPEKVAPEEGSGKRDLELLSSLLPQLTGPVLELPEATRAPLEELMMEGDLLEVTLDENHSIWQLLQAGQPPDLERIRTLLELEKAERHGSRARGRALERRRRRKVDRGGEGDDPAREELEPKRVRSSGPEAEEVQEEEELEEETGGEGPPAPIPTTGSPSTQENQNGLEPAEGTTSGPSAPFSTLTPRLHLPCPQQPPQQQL

| SMILES | pIC50 (KDM5C (JARID1C)) | pIC50 (KDM5B (PLU-1)) | pIC50 (KDM7 (PHF8)) | pIC50 (KDM3A (JMJD1A)) |
| --- | --- | --- | --- | --- |
| CC1CC1/N=C/c1ccnc(CNCC(=O)N(C)C)c1 (centres unmarked) [Compound 35, N,N-dimethyl-2-[({4-[N-(2-methylcyclopropyl)-carboximidoyl]pyridin-2-yl}methyl)amino]-acetamide] | > 6.60 | 5.60 to 6.60 | > 6.60 | < 5.60 |
| CN(C)C(=O)CNCc1cc(/C=N/CCC2CCCCC2)ccn1 [Compound 36, 2-[({4-[[(2-cyclohexylethyl)imino]-methyl]pyridin-2-yl}methyl)amino]-N,N-dimethylacetamide] | > 6.60 | > 6.60 | 5.60 to 6.60 | < 5.60 |
| CN(C)CCC/N=C/c1ccnc(CNCCCN(C)C)c1 [Compound 37, [3-(dimethylamino)propyl]-({4-[{[3-(dimethylamino)propyl]-imino}methyl]pyridin-2-yl}methyl)amine] | > 6.60 | > 6.60 | < 5.60 | < 5.60 |
| CN(C)CCCNCc1cc(/C=N/CCN(C)C)ccn1 [Compound 38, ({4-[{[2-(dimethylamino)ethyl]-imino}methyl]pyridin-2-yl}methyl)[3-(dimethylamino)-propyl]amine] | > 6.60 | > 6.60 | < 5.60 | < 5.60 |
| CN(C)C/C=C/CNCc1cc(/C=N/C2CC2)ccn1 [Compound 43, N-{[2-({[(2E)-4-(dimethylamino)but-2-en-1-yl]amino}-methyl)pyridin-4-yl]methylidene}-cyclopropanamine] | > 6.60 | > 6.60 | 5.60 to 6.60 | < 5.60 |
| CN(C)CC1CCC(CNCc2cc(/C=N/C3CC3)ccn2)CC1 (centres unmarked) [Compound 46, N-[(2-{[({4-[(dimethylamino)-methyl]cyclohexyl}-methyl)amino]-methyl}pyridin-4-yl)methylidene]-cyclopropanamine] | > 6.60 | 5.60 to 6.60 | < 5.60 | < 5.60 |
| CCN(CC)CCCCNC(=O)CNCc1cc(/C=N/C2CC2)ccn1 [Compound 48, 2-[({4-[N-cyclopropyl-carboximidoyl]pyridin-2-yl}methyl)amino]-N-[4-(diethylamino)-butyl]acetamide] | > 6.60 | > 6.60 | > 6.60 | < 5.60 |
| O=C(CNCc1cc(/C=N/C2CC2)ccn1)N1CCC[C@@H]1CN1CCCC1 [Compound 49, 2-[({4-[N-cyclopropyl-carboximidoyl]pyridin-2-yl}methyl)amino]-1-[(2R)-2-(pyrrolidin-1-ylmethyl)pyrrolidin-1-yl]ethan-1-one] | > 6.60 | > 6.60 | 5.60 to 6.60 | < 5.60 |
| CCN(CCC#N)C(=O)CNCc1cc(/C=N/C2CC2)ccn1 [Compound 50, N-(2-cyanoethyl)-2-[({4-[N-cyclopropyl-carboximidoyl]-pyridin-2-yl}methyl)amino]-N-ethylacetamide] | > 6.60 | > 6.60 | > 6.60 | < 5.60 |
| CCN1CCCC1CNC(=O)CNCc1cc(/C=N/C2CC2)ccn1 (centres unmarked) [Compound 51, 2-[({4-[N-cyclopropyl-carboximidoyl]-pyridin-2-yl}methyl)-amino]-N-[(1-ethylpyrrolidin-2-yl)methyl]acetamide] | > 6.60 | > 6.60 | 5.60 to 6.60 | < 5.60 |
| O=C(CNCc1cc(/C=N/C2CC2)ccn1)NC1CCN(Cc2ccccc2)C1 (centres unmarked) [Compound 53, N-(1-benzylpyrrolidin-3-yl)-2-[({4-[N-cyclopropyl-carboximidoyl]pyridin-2-yl}methyl)amino]-acetamide] | > 6.60 | > 6.60 | > 6.60 | 5.60 to 6.60 |

The remaining lines, values ahead:

| pIC50 (KDM5C (JARID1C)) | pIC50 (KDM5B (PLU-1)) | pIC50 (KDM7 (PHF8)) | pIC50 (KDM3A (JMJD1A)) | SMILES |
| --- | --- | --- | --- | --- |
| > 6.60 | 5.60 to 6.60 | > 6.60 | < 5.60 | CCSCCNCc1cc(/C=N/C2CC2)ccn1 [Compound 39, N-{[2-({[2-(ethylsulfanyl)-ethyl]amino}methyl)pyridin-4-yl]methylidene}-cyclopropanamine] |
| > 6.60 | > 6.60 | < 5.60 | < 5.60 | CN1CCCC1CCNCc1cc(/C=N/C2CC2)ccn1 (stereo not drawn) [Compound 40, N-{[2-({[2-(l-methylpyrrolidin-2-yl)ethyl]amino}methyl)-pyridin-4-yl]methylidene}-cyclopropanamine] |
| > 6.60 | > 6.60 | < 5.60 | < 5.60 | C(=N/C1CC1)/c1ccnc(CNCCCN2CCCC2)c1 [Compound 42, N-{[2-({[3-(pyrrolidin-1-yl)propyl]amino}-methyl)pyridin-4-yl]methylidene}-cyclopropanamine] |
| > 6.60 | > 6.60 | < 5.60 | < 5.60 | C(=N\C1CC1)/c1ccnc(CNCCCCN2CCC2)c1 [Compound 44, N-{[2-({[4-(azetidin-1-yl)butyl]amino}methyl)-pyridin-4-yl]methylidene}-cyclopropanamine] |
| > 6.60 | 5.60 to 6.60 | < 5.60 | < 5.60 | CN(C)CCCCNCc1cc(/C=N\C2CC2)ccn1 [Compound 45, N-{[2-({[4-(dimethylamino)butyl]-amino}methyl)-pyridin-4-yl]methylidene}-cyclopropanamine] |
| > 6.60 | > 6.60 | < 5.60 | < 5.60 | CN(C)CCCCCNCc1cc(/C=N/C2CC2)ccn1 [Compound 47, N-{[2-({[5-(dimethylamino)-pentyl]amino}-methyl)pyridin-4-yl]methylidene}-cyclopropanamine] |
